Experiments:
FXR [1] = molecular target: T1, FXR (Homo sapiens, UniProt Q96RI1); test: In Vitro FXR Assay (TK): TK-ECRE-luc reporter in transfected CV-1 cells; assay type: cell-based; details: CV-1 cells transfected with hFXR, hRXR, 18 h incubation, luminescence
T1 construct: expressed in transfected cells; host or cells: CV-1 cells
T1 sequence (Q96RI1 1-486): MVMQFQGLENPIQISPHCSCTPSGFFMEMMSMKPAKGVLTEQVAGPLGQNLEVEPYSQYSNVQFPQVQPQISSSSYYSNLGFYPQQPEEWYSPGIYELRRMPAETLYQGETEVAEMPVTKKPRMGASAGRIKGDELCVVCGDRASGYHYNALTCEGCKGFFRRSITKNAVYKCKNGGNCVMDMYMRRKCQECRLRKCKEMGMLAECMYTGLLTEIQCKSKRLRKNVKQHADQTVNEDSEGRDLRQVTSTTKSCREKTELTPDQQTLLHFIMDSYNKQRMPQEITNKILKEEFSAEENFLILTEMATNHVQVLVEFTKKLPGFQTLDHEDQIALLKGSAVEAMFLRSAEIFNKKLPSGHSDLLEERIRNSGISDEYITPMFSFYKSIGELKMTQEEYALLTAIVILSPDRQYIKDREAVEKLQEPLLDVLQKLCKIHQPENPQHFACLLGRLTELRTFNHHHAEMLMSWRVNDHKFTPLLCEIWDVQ
T1 sequence (P19793 1-462 partner): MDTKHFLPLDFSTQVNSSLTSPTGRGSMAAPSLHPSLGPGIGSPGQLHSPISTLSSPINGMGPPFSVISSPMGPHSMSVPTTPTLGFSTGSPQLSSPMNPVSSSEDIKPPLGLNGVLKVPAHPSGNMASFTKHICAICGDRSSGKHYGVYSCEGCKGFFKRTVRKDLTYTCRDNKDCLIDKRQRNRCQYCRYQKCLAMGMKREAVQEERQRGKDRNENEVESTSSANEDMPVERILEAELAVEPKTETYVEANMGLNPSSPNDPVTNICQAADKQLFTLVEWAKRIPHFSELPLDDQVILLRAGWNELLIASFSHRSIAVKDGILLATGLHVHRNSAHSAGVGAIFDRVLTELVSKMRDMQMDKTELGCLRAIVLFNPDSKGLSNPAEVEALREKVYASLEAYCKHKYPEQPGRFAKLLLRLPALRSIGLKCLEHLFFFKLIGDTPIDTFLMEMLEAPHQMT
How it was run: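 Luciferase read-out from lysed CV-1 cells exposed 18 h to DMSO-diluted compounds. Cells had been transfected overnight with expression plasmids for hFXR and hRXR plus TK-ECRE-luc reporter and pCMX-YFP, grown in charcoal-stripped serum at 37 °C, 5% CO2.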

FXR [2] = molecular target: T1, FXR; test: In Vitro FXR Assay (PGL3): luciferase reporter in transfected CV-1 cells; assay type: cell-based; details: CV-1 cells transfected with hFXR, hRXR, PGL3-ECRE*6-luc; 18 h incubation; luminescence
How it was run: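 CV-1 cells in charcoal-stripped FBS were transiently co-transfected with full-length human FXR, RXR, an ECRE×6-luciferase reporter, β-gal and YFP plasmids. Transfected cells were reseeded onto half-log compound dilutions and incubated 18 h. Luciferase luminescence was read after lysis, and EC50 was determined.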

Row | SMILES | EC50 (FXR [1]) | Cmpd/Fex (ratio of the EC50 for the test compound relative to the EC50 of the Fexaramine control) (FXR [2])
1 | COC(=O)/C=C/c1cc(N(Cc2ccc(-c3ccc(N(C)C)cc3)cc2)C(=O)C2CCCCC2)ccc1C [compound 40, (E)-Methyl 3-(5-(N-((4′-(dimethylamino)-[1,1′-biphenyl]-4-yl)methyl)cyclohexanecarboxamido)-2-methylphenyl)acrylate] | > 10 µM | + (‘+’ means Cmpd/Fex > 100)
2 | COC(=O)/C=C/c1cccc(N(Cc2ccc(-c3ccc(N(C)C)cc3)cc2)C(=O)C23CC4CC(CC(C4)C2)C3)c1 [compound 12, (E)-Methyl 3-(3-(-N-((4′-(dimethylamino)-[1,1′-biphenyl]-4-yl)methyl)adamantane-1-carboxamido)phenyl)acrylate] | 1 to 10 µM | +++ (‘+++’ means Cmpd/Fex < 10)
3 | COC(=O)/C=C/c1cccc(N(Cc2ccc(-c3ccccc3C#N)cc2)C(=O)C2CCCCC2)c1 [compound 66, (E)-Methyl 3-(3-(N-((2′-cyano-[1,1′-biphenyl]-4-yl)methyl)cyclohexanecarboxamido)phenyl) acrylate] | 1 to 10 µM | + (‘+’ means Cmpd/Fex > 100)
4 | COC(=O)/C=C/c1cccc(N(Cc2ccc(-c3cccc(C(F)(F)F)c3)cc2)C(=O)C2CCCCC2)c1 [compound 35, (E)-Methyl 3-(3-(N-((3′-(trifluoromethyl)-[1,1′-biphenyl]-4-yl)methyl)cyclohexanecarboxamido)phenyl)acrylate] | 1 to 10 µM | ++ (‘++’ means Cmpd/Fex > 10 & < 100)
5 | COC(=O)/C=C/c1cccc(N(C(=O)C2CCCCC2)C(C)c2ccc(-c3ccc(N(C)C)cc3)cc2)c1 (centres unmarked) [compound 46, (E)-Methyl 3-(3-(N-(1-(4′-(dimethylamino)-[1,1′-biphenyl]-4-yl)ethyl)cyclohexanecarboxamido)phenyl) acrylate] | 1 to 10 µM | ++ (‘++’ means Cmpd/Fex > 10 & < 100)
6 | COC(=O)/C=C/c1cccc(N(Cc2ccc(-c3ccc4[nH]ncc4c3)cc2)C(=O)C2CCCCC2)c1 [compound 49, (E)-Methyl 3-(3-(N-(4-(1H-indazol-5-yl)benzyl)cyclohexanecarboxamido)phenyl) acrylate] | 1 to 10 µM | + (‘+’ means Cmpd/Fex > 100)

Other lines, results leading:

Row | EC50 (FXR [1]) | Cmpd/Fex (ratio of the EC50 for the test compound relative to the EC50 of the Fexaramine control) (FXR [2]) | SMILES
7 | ≤ 1 µM | +++ (‘+++’ means Cmpd/Fex < 10) | COC(=O)/C=C/c1cccc(N(Cc2ccc(-c3ccc(N(C)C)cc3)cc2)C(=O)[C@H]2CC[C@@H](OC)CC2)c1 [compound 8, (E)-Methyl 3-(3-((1r,4r)-N-((4′-(dimethylamino)-[1,1′-biphenyl]-4-yl)methyl)-4-methoxycyclohexanecarboxamido)phenyl)acrylate]
8 | 1 to 10 µM | +++ (‘+++’ means Cmpd/Fex < 10) | COC(=O)/C(C)=C/c1cccc(N(Cc2ccc(-c3ccc(N(C)C)cc3)cc2)C(=O)C2CCCCC2)c1 [compound 63, (E)-Methyl 3-(3-(N-((4′-(dimethylamino)-[1,1′-biphenyl]-4-yl)methyl)cyclohexanecarboxamido)phenyl)-2-methylacrylate]
9 | 1 to 10 µM | + (‘+’ means Cmpd/Fex > 100) | COC(=O)/C=C/c1cccc(N(Cc2ccc(-c3c(C)noc3C)cc2)C(=O)C2CCCCC2)c1 [compound 31, (E)-Methyl 3-(3-(N-(4-(3,5-dimethylisoxazol-4-yl)benzyl)cyclohexanecarboxamido)phenyl)acrylate]
10 | 1 to 10 µM | +++ (‘+++’ means Cmpd/Fex < 10) | CC(C)OC(=O)/C=C/c1cccc(N(Cc2ccc(-c3ccc(N(C)C)cc3)cc2)C(=O)C2CCCCC2)c1 [compound 83, (E)-iso-Propyl 3-(3-(N-((4′-(dimethylamino)-[1,1′-biphenyl]-4-yl)methyl)cyclohexanecarboxamido)phenyl) acrylate]
